Assay results published in US11944624B2, “Peptide and small molecule agonists of EphA and their uses” (CASE WESTERN RESERVE UNIVERSITY, priority 2017, dated 2024).

Columns and labels:
[1] = molecular target: EphA2 (Homo sapiens, UniProt P29317); test: EphA2 activation in HEK 293-A2 cells (pEphA/B immunoblot); format: cell-based; set-up: expressed in transfected cells
Experimental: (§1) Cells were plated in 24-well dishes at a density of 100,000 cells/well and grown for 24 hours prior to stimulation with appropriate compounds and ephrins for the given amounts of time. Compounds were prepared in DMSO at 500 times the final concentrations and 0.2% DMSO was used as vehicle control. Following treatment, cells were lysed directly in SDS Gel Loading Buffer and immunoblotted as described previously. Immunoprecipitation and immunofluorescence staining was performed as described. For immunoprecipitation, 300,000 cells/well were plated in 6-well dishes and lysed in modified RIPA Buffer (20 mM Tris-HCl pH 7.4, 20 mM NaF, 150 mM NaCl, 10% glycerol, 0.1% SDS, 0.5% DCA, 2 mM EDTA, 1% Triton X-100) following treatment. Either 10 μg of ephrin-A1-Fc, or […] of EphA2 mouse monoclonal antibody (Clone D7, Millipore) were used, and mouse IgG was used as a negative control for EphA2 IP.
(§2) To determine whether the EphA2 agonist activity of doxazosin is cell-context specific, we evaluated the effects of doxazosin on additional cell types. We first utilized HEK 293 cells overexpressing EphA2 (HEK 293-A2) that we described previously. […] Next we tested PC-3 cells that express high levels of endogenous EphA2 receptor. […] We next evaluated the time-course of activation in both MDA-231-A2 and HEK 293-A2 cells upon treatment with a single 50 μM dose of doxazosin.

[2] = tested on: DU145 and PC-3 cell xenografts; conditions: previously shown, independent of α1-adrenoreceptor; cited from earlier work
[3] = molecular target: endogenous EphA2 (Homo sapiens, UniProt P29317); test: Activation of endogenous EphA2 in PC-3 cells (pEphA/B immunoblot); format: cell-based; set-up: host or cells: PC-3; conditions: 30 minutes
Experimental: as §1, §2

[4] = tested on: A172-A2 glioma cells; test: Haptotactic cell migration toward fibronectin, A172-A2; format: cell-based; conditions: A172-A2, 4 hours
Excerpt: One of the well-established functions of Eph receptors is the ligand-dependent repulsive guidance of cell migration. As a ligand-mimicking agonist for EphA2, doxazosin is expected to activate EphA2 on tumor cells and repulse migrating tumor cells in vitro. To test this possibility, we first investigated the effects of doxazosin on integrin-mediated haptotactic cell migration toward fibronectin in a modified Boyden chamber cell migration assay. […] The inhibitory effects were observed when doxazosin was presented either in the bottom chamber, or in both top and bottom chambers in the Transwell assay system. […] Therefore, doxazosin can recapitulate a key function attributed to its native ligands, i.e., negative regulation of cell migration.

[5] = molecular target: T1, EphB3 (Homo sapiens, UniProt P54753); test: EphB3 activation in HEK 293 cells overexpressing EphB3; format: cell-based; conditions: HEK 293 overexpressing EphB3, high basal activation
T1 construct: expressed in transfected cells; host or cells: HEK 293
T1 sequence (P54753 34-998): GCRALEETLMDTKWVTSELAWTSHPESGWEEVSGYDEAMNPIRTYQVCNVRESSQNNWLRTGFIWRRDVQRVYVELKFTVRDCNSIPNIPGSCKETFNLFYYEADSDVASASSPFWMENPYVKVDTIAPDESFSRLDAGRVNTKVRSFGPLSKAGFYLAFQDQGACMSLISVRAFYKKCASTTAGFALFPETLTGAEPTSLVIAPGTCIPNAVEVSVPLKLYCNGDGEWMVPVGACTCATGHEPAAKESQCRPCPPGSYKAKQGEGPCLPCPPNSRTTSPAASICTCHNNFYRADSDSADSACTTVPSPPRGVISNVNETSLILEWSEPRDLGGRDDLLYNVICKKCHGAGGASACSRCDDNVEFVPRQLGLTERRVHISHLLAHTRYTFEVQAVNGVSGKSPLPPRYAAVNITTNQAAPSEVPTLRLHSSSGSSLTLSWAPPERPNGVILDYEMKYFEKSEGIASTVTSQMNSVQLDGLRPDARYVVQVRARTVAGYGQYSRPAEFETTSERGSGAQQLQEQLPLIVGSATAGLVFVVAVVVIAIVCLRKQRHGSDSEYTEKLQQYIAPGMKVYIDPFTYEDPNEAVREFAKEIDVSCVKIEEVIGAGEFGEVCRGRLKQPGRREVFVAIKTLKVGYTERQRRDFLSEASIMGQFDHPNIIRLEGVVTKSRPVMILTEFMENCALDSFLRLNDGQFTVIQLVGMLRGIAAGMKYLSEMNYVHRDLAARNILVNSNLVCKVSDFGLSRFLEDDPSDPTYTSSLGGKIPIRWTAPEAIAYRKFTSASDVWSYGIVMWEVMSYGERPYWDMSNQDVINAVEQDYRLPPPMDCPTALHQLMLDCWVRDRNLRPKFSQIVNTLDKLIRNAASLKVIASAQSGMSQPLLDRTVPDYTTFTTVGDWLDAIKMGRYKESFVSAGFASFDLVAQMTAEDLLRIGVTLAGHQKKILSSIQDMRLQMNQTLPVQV
Experimental: Cells were plated in 24-well dishes at a density of 100,000 cells/well and grown for 24 hours prior to stimulation with appropriate compounds and ephrins for the given amounts of time. Compounds were prepared in DMSO at 500 times the final concentrations and 0.2% DMSO was used as vehicle control. Following treatment, cells were lysed directly in SDS Gel Loading Buffer and immunoblotted as described previously. […] For immunoprecipitation, 300,000 cells/well were plated in 6-well dishes and lysed in modified RIPA Buffer (20 mM Tris-HCl pH 7.4, 20 mM NaF, 150 mM NaCl, 10% glycerol, 0.1% SDS, 0.5% DCA, 2 mM EDTA, 1% Triton X-100) following treatment. Either 10 μg of ephrin-A1-Fc, or 4 mg of EphA2 mouse monoclonal antibody (Clone D7, Millipore) were used, and mouse IgG was used as a negative control for EphA2 IP. […] For this purpose, HEK 293 cell lines overexpressing EphA1, EphA2, EphA3, EphA4, and EphB3 kinases were utilized.

Sequence of EphA2 (P29317 24-976): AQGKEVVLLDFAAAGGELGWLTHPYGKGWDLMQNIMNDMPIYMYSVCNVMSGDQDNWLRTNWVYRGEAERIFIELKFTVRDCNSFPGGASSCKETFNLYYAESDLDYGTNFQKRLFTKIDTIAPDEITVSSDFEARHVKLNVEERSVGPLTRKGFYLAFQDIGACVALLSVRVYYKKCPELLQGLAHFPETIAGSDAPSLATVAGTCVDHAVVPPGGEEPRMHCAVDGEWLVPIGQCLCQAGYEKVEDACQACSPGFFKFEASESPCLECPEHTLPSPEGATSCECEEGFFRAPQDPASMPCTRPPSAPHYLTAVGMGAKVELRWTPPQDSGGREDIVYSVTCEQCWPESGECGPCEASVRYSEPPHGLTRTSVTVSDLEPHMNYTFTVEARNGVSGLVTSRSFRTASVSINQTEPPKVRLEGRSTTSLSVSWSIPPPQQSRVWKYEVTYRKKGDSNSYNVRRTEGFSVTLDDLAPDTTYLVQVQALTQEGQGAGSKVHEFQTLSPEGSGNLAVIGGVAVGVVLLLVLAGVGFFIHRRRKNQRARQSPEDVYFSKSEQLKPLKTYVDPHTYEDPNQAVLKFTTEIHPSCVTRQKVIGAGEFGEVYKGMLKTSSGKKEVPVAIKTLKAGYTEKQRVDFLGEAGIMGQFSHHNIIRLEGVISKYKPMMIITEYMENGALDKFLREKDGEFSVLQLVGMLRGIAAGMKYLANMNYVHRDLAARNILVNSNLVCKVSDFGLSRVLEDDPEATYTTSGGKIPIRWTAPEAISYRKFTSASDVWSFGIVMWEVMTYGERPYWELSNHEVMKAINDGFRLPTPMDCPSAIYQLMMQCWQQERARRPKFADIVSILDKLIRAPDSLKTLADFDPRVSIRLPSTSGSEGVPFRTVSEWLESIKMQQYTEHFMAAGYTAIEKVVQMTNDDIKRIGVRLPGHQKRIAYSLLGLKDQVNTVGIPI
Sequence of endogenous EphA2 (P29317 24-976): as above

COc1cc2nc(N3CCN(C(=O)C4COc5ccccc5O4)CC3)nc(N)c2cc1OC (stereo not shown) [Doxazosin, 2-[4-(2,3-Dihydro-1,4-benzodioxine-2-carbonyl)piperazin-1-yl]-6,7-dimethoxyquinazolin-4-amine]
concentration at which EphA2 activation starts ([1]; HEK 293-A2 cells, 30 minutes): 25 µM
time at which EphA2 activation becomes evident ([1]; HEK 293-A2 cells, single 50 μM dose): 10 min
EphA2 kinase activation ([1]; HEK 293 overexpressing EphA2, 60 minutes): activated both EphA2 and EphA4 kinases following a similar dose-response relationship
subcutaneous xenograft growth [2]: moderately decrease subcutaneous growth of DU145 and PC-3 cell xenografts
concentration at which EphA2 activation becomes evident [3]: 50 µM
haptotactic cell migration toward fibronectin [4]: dose-dependent inhibition of cell migration
EphB3 activation [5]: notable decrease in EphB3 activation
